# Tests used:
# DIO mice [1] = assay: Anti-obesity effect for DIO mice (body weight); assay type: in vivo, C57BL/6 mice; conditions: Mus musculus, 672 h, 4 weeks, oral gavage once daily
# Method: (§1) Five-week-old female C57BL/6 mice (Narabio Co., Ltd.) were purchased and fed with only high-fat diet for at least 10 weeks to produce diet induced obesity ([…]) mice. Samples were exactly taken from Preparation Example 1 (glabridin) and the compounds of Examples of the present invention (Compounds 1 to 5, 7, 9, 11, 14 to 16, 21, and 23) according to the administration dose and put into Falcon tubes, 3 ml of a 0.5% methyl cellulose aqueous solution was added thereto and a vortex mixer was used to primarily mix the ingredients in a soft manner, and then a homogenizer (30,000 rpm, Ultra-Turrax® T10 Basic, IKA) was used to treat the sample for 3 minutes while 1.5 ml of a 0.5% methyl cellulose aqueous solution was added thereto. The sample thus prepared was administered through oral gavage using a disposable plastic syringe once daily for 28 days (4 weeks). The body weight was measured twice a week while the DIO mice were bred in this manner. Based on the data thus calculated, the anti-obesity effect (%) was calculated according to the equation defined as follows. Anti-Obesity Effect={(Body weight of control group)−(Body weight of experimental group)}/(Body weight of control group)×100
# PTP1B = PTP1B (Homo sapiens (Human), UniProt P18031); assay: Experiment of PTP1B inhibition (p-NPP dephosphorylation); assay type: biochemical; conditions: 2 mM p-NPP substrate, 30° C., 30 minutes
# Excerpt: With respect to PTP1B, the degrees of inhibition (IC50 The half maximal inhibitory concentration) of glabridin, and compounds of Preparation Example 2 (Compound 1), Example 2 (Compound 3), Example 3 (Compound 4), Example 4 (Compound 5), Example 13 (Compound 14), Example 14 (Compound 15), Example 15 (Compound 16), Example 17 (Compound 18), Example 18 (Compound 19) and Example 20 (Compound 21) were compared to each other. For this purpose, the degree of inhibition activity for PTP1B was investigated by using 2 mM p-nitrophenyl phosphate (p-NPP) as a substrate to measure the dephosphorylation degree. First, PTP1B diluted with distilled water was reacted with 2 mM p-nitrophenyl phosphate {p-NPP, 0.1 M NaCl, 1 mM EDTA, 50 mM citrate pH 6.0, and 1 mM dithiothreitol (DTT)} and Compound 1 at various concentrations at 30° C. for 30 minutes, and then the reaction was terminated with a 1 N-sodium hydroxide (NaOH) solution. The absorbance of the samples thus prepared was measured to confirm the inhibition degree (IC50: The half maximal inhibitory concentration) for PTP1B activity according to the concentration of Compound 1. Even for glabridin, Compound 3, Compound 4, Compound 5, Compound 14, Compound 15, Compound 16, Compound 18, Compound 19, and Compound 21, the same measurement was performed.
# DIO mice [2] = assay: Organ weights and blood biochemistry of DIO mice after 28 days of administration; assay type: in vivo, C57BL/6 mice
# Method: as §1
# After the experiment was performed for 28 days (4 weeks) as described above, blood was simultaneously taken while the experimental animal was finally sacrificed, and each of the organs (liver, heart, kidney, pancreas, fat tissues and the like) was removed to measure the weight and observe peculiar matters.
# In Table 3, { }, ( ) and the like were used in order to differentiate experiments which had been performed at different periods. Experiments without the parenthesis were those simultaneously performed under the same conditions.
# RAW264.7 macrophages = assay: RAW264.7 macrophage NO assay (LPS-induced NO production, Griess reagent); assay type: cell-based
# Method: (§2) After the pretreatment, the MTT (Sigma, M2128) reagent at a concentration of 0.5 mg/ml was further added thereto. After the cells were cultured in a 5% CO2 incubator for 4 hours, the supernatant was discarded, 150 μl of DMSO was added and was shaken for 30 minutes, and an ELISA micro plate reader (Bio Rad Laboratories Inc., California, USA, Model 680) was used to measure the absorbance at a wavelength of 540 nm. All the experimental values were calculated as an average value of three repeated experimental values of the cell protection rate for the control group, and an experiment of suppressing the NO production for each compound was carried out at a concentration in which no cytotoxicity was shown.
# (§3) After the reaction, an ELISA micro plate reader (Bio Rad Laboratories Inc., California, USA, Model 680) was used to measure the absorbance at a wavelength of 540 nm. The suppression rate was calculated as a difference in amount of NO produced between the control group and the experimental group, and as shown in the following Table 7, Compounds 4, 5, 15, 16, 18, and the like of the present invention were excellent in the effect of suppressing the production of NO.
# BV2 microglia cells = assay: BV2 cell NO assay (LPS-induced NO production, Griess reagent); assay type: cell-based; conditions: Mus musculus, BV-2, LPS 1 μg/ml, 24 hours
# Method: as §2, with “pretreatment, 0.5 mg/ml of” for “pretreatment,”, “reagent” for “reagent at a concentration of 0.5 mg/ml”, “incubator,” for “incubator for 4 hours,”
# as §3, with “6 and FIG. 6,” for “7,”, “NO, and the effect is also about 5 times to about 9 times better than that of glabridin.” for “NO.”
# [3] = 150 mg/kg, experiment without parenthesis
# PTP1B, sequence (P18031 whole entry, species assumed): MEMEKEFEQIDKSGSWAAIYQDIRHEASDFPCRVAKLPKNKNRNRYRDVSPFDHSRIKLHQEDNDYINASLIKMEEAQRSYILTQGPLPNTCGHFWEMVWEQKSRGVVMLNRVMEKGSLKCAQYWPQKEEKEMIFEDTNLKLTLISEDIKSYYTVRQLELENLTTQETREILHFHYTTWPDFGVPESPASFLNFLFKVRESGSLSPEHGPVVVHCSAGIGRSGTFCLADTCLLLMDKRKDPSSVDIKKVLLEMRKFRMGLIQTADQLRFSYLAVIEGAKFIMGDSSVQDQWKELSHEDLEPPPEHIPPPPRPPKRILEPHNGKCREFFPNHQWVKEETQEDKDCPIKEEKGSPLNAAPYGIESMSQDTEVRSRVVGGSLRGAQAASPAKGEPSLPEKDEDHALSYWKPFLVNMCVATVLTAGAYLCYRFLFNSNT
structure (smiles),measurement,setting,value
"COc1ccc(C2COc3c(ccc4c3CCC(C)(C)O4)C2)c(O)c1 (stereo not shown) [Compound 14, 3-(2-hydroxy-4-methoxyphenyl)-8,8-dimethyl-2,3,4,8,9,10-hexahydropyrano [2,3-f] chromene]",inhibition in vivo at 150 mg/kg,DIO mice [1],12%
same,IC50,PTP1B,6.5 µM
same,ALT (U/L),DIO mice [2]; [3],51 U/L
same,AST (U/L),DIO mice [2]; [3],131 U/L
same,BMI,DIO mice [2]; [3],3.9
same,FFA (μEq/L),DIO mice [2]; [3],2160 μEq/L
same,"Fat (g), weight of fat removed around the epididymis and the kidney",DIO mice [2]; [3],2.23 g
same,LDL,DIO mice [2]; [3],13 mg/dL
same,"Liver (g), weight of liver",DIO mice [2]; [3],1.19 g
"COCOc1ccc(C2COc3c(ccc4c3CCC(C)(C)O4)C2)c(O)c1 (stereo not shown) [Compound 21, 3-(2-hydroxy-4-(methoxymethoxy)phenyl)-8,8-dimethyl-2,3,4,8,9,10-hexahydropyrano [2,3-f] chromene]",inhibition in vivo at 150 mg/kg,DIO mice [1],16%
same,IC50,PTP1B,2.3 µM
same,ALT (U/L),DIO mice [2]; [3],46 U/L
same,AST (U/L),DIO mice [2]; [3],104 U/L
same,BMI,DIO mice [2]; [3],3.6
same,FFA (μEq/L),DIO mice [2]; [3],1520 μEq/L
same,"Fat (g), weight of fat removed around the epididymis and the kidney",DIO mice [2]; [3],2.13 g
same,LDL,DIO mice [2]; [3],12 mg/dL
same,"Liver (g), weight of liver",DIO mice [2]; [3],1.11 g
"CCCCc1ccc(C2COc3c(ccc4c3CCC(C)(C)O4)C2)c(O)c1 (stereo not shown) [Compound 7, 3-(2-hydroxy-4-butylphenyl)-8,8-dimethyl-2,3,4,8,9,10-hexahydropyrano [2,3-f] chromene]",inhibition in vivo at 150 mg/kg,DIO mice [1],14%
"CC1(C)CCc2c(ccc3c2OCC(c2ccccc2O)C3)O1 (stereo not shown) [Compound 2, 3-(2-hydroxyphenyl)-8,8-dimethyl-2,3,4,8,9,10-hexahydropyrano [2,3-f] chromene]",inhibition in vivo at 200 mg/kg,DIO mice [1],8%
"CCC1(CC)CCc2c(ccc3c2OCC(c2ccc(OC)cc2O)C3)O1 (stereo not shown) [Compound 23, 3-(2-hydroxy-4-methoxyphenyl)-8,8-diethyl-2,3,4,8,9,10-hexahydropyrano [2,3-f] chromene]",inhibition in vivo at 200 mg/kg,DIO mice [1],11%
"CCCCCOc1ccc(C2COc3c(ccc4c3CCC(C)(C)O4)C2)c(O)c1 (stereo not shown) [Compound 19, 3-(2-hydroxy-4-n-pentoxyphenyl)-8,8-dimethyl-2,3,4,8,9,10-hexahydropyrano [2,3-f] chromene]",IC50,PTP1B,1.2 µM
"CC1(C)CCc2c(ccc3c2OC[C@@H](c2ccc(O)cc2O)C3)O1 [Compound 1, 3″,4″-dihydroglabridin]",inhibition in vivo at 150 mg/kg,DIO mice [1],8%
same,IC50,PTP1B,46 µM
same,ALT (U/L),DIO mice [2]; [3],34 U/L
same,AST (U/L),DIO mice [2]; [3],93 U/L
same,BMI,DIO mice [2]; [3],3.8
same,FFA (μEq/L),DIO mice [2]; [3],1400 μEq/L
same,"Fat (g), weight of fat removed around the epididymis and the kidney",DIO mice [2]; [3],2.07 g
same,LDL,DIO mice [2]; [3],11 mg/dL
same,"Liver (g), weight of liver",DIO mice [2]; [3],1.24 g
"CCCCOc1ccc(C2COc3c(ccc4c3CCC(C)(C)O4)C2)c(O)c1 (stereo not shown) [Compound 18, 3-(2-hydroxy-4-butoxyphenyl)-8,8-dimethyl-2,3,4,8,9,10-hexahydropyrano [2,3-f] chromene]",IC50,"RAW264.7 macrophages; Mus musculus, RAW264.7, NO production, LPS 1 μg/ml, 24 hours",5.6 µM
same,effect of suppressing the production of NO,"RAW264.7 macrophages; RAW264.7 macrophages, in words",excellent
same,IC50,BV2 microglia cells,2.8 µM
same,IC50,PTP1B,3.4 µM
"COCCc1ccc(C2COc3c(ccc4c3CCC(C)(C)O4)C2)c(O)c1 (stereo not shown) [Compound 9, 3-(2-hydroxy-4-(2-methoxyethyl)phenyl)-8,8-dimethyl-2,3,4,8,9,10-hexahydropyrano [2,3-f] chromene]",inhibition in vivo at 150 mg/kg,DIO mice [1],10%
"Cc1cc(O)c(C2COc3c(ccc4c3CCC(C)(C)O4)C2)cc1C (stereo not shown) [Compound 11, 3-(2-hydroxy-4,5-dimethylphenyl)-8,8-dimethyl-2,3,4,8,9,10-hexahydropyrano [2,3-f] chromene]",inhibition in vivo at 150 mg/kg,DIO mice [1],8%
"Cc1ccc(C2COc3c(ccc4c3CCC(C)(C)O4)C2)c(O)c1 (stereo not shown) [Compound 3, 3-(2-hydroxy-4-methylphenyl)-8,8-dimethyl-2,3,4,8,9,10-hexahydropyrano [2,3-f] chromene]",inhibition in vivo at 200 mg/kg,DIO mice [1],19%
same,IC50,PTP1B,7 µM
same,ALT (U/L),"DIO mice [2]; 200 mg/kg, { } experiment",{73} U/L
same,AST (U/L),"DIO mice [2]; 200 mg/kg, { } experiment",{152} U/L
same,BMI,"DIO mice [2]; 200 mg/kg, { } experiment",{3.5}
same,FFA (μEq/L),"DIO mice [2]; 200 mg/kg, { } experiment",{2390} μEq/L
same,"Fat (g), weight of fat removed around the epididymis and the kidney","DIO mice [2]; 200 mg/kg, { } experiment",{1.62} g
same,LDL (mg/dL),"DIO mice [2]; 200 mg/kg, { } experiment",{22} mg/dL
same,"Liver (g), weight of liver","DIO mice [2]; 200 mg/kg, { } experiment",{1.53} g

# Reference: patent publication US9783551B2, “Pyranochromenyl phenol derivative, and pharmaceutical composition for treating metabolic syndrome or inflammatory disease” (GLACEUM, INC., priority 2013, dated 2017)
